From PubChem BioAssay (NCI)
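48-hour exposure; five concentrations; linearly interpolated endpoints. At the GI50, growth is halved. TGI: total growth inhibition.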

Columns and labels:
Test in all cases: NCI anticancer screen, dose series, 48 h
786-0 renal = test system: 786-0 renal
A498 renal = test system: A498 renal
A549 NSCLC = test system: A549 NSCLC
ACHN renal = test system: ACHN renal
BT-549 breast = test system: BT-549 breast
CAKI-1 renal = test system: CAKI-1 renal
CCRF-CEM leukemia = test system: CCRF-CEM leukemia
COLO 205 colon = test system: COLO 205 colon
DU-145 prostate = test system: DU-145 prostate
EKVX NSCLC = test system: EKVX NSCLC
HCC-2998 colon = test system: HCC-2998 colon
HCT-116 colon = test system: HCT-116 colon
HL-60(TB) leukemia = test system: HL-60(TB) leukemia
HOP-62 NSCLC = test system: HOP-62 NSCLC
HOP-92 NSCLC = test system: HOP-92 NSCLC
HS 578T breast = test system: HS 578T breast
HT29 colon = test system: HT29 colon
IGROV1 ovarian = test system: IGROV1 ovarian
K-562 leukemia = test system: K-562 leukemia
KM12 colon = test system: KM12 colon
M14 melanoma = test system: M14 melanoma
MALME-3M melanoma = test system: MALME-3M melanoma
MCF7 breast = test system: MCF7 breast
MDA-MB-231 breast = test system: MDA-MB-231 breast
MDA-MB-435 = test system: MDA-MB-435
MOLT-4 leukemia = test system: MOLT-4 leukemia
NCI-H23 lung = test system: NCI-H23 lung
NCI-H460 lung = test system: NCI-H460 lung
NCI-H522 lung = test system: NCI-H522 lung
NCI/ADR-RES ovarian = test system: NCI/ADR-RES ovarian
OVCAR-3 ovarian = test system: OVCAR-3 ovarian
OVCAR-4 ovarian = test system: OVCAR-4 ovarian
OVCAR-5 ovarian = test system: OVCAR-5 ovarian
OVCAR-8 ovarian = test system: OVCAR-8 ovarian
PC-3 prostate = test system: PC-3 prostate
RPMI-8226 leukemia = test system: RPMI-8226 leukemia
RXF 393 renal = test system: RXF 393 renal
SF-268 CNS = test system: SF-268 CNS
SF-295 CNS = test system: SF-295 CNS
SF-539 CNS = test system: SF-539 CNS
SK-MEL-2 melanoma = test system: SK-MEL-2 melanoma
SK-MEL-28 melanoma = test system: SK-MEL-28 melanoma
SK-MEL-5 melanoma = test system: SK-MEL-5 melanoma
SK-OV-3 ovarian = test system: SK-OV-3 ovarian
SN12C renal = test system: SN12C renal
SNB-19 CNS = test system: SNB-19 CNS
SNB-75 CNS = test system: SNB-75 CNS
SR leukemia = test system: SR leukemia
SW-620 colon = test system: SW-620 colon
T-47D breast = test system: T-47D breast
TK-10 renal = test system: TK-10 renal
U251 CNS = test system: U251 CNS
UACC-257 melanoma = test system: UACC-257 melanoma
UACC-62 melanoma = test system: UACC-62 melanoma
UO-31 renal = test system: UO-31 renal

COc1ccc(-c2c3c(nc4n[nH]c(-c5ccc(Cl)cc5)c24)-c2ccccc2C(=O)C3=O)cc1
GI50 (786-0 renal): 2010 nM | TGI (786-0 renal): 4.59 µM | GI50 (A498 renal): 3.72 µM | TGI (A498 renal): 17.6 µM | GI50 (A549 NSCLC): 1830 nM | TGI (A549 NSCLC): 3.54 µM | GI50 (ACHN renal): 1460 nM | TGI (ACHN renal): 3.3 µM | GI50 (BT-549 breast): 1410 nM | TGI (BT-549 breast): 2890 nM | GI50 (CAKI-1 renal): 1620 nM | TGI (CAKI-1 renal): 4.38 µM | GI50 (CCRF-CEM leukemia): 2550 nM | TGI (CCRF-CEM leukemia): > 100 µM | GI50 (COLO 205 colon): 1570 nM | TGI (COLO 205 colon): 2990 nM | GI50 (DU-145 prostate): 1590 nM | TGI (DU-145 prostate): 2960 nM | GI50 (EKVX NSCLC): 1640 nM | TGI (EKVX NSCLC): 4.43 µM | GI50 (HCC-2998 colon): 1730 nM | TGI (HCC-2998 colon): 3.19 µM | GI50 (HCT-116 colon): 1010 nM | TGI (HCT-116 colon): 2480 nM | GI50 (HL-60(TB) leukemia): 3.08 µM | TGI (HL-60(TB) leukemia): 28.1 µM | GI50 (HOP-62 NSCLC): 1560 nM | TGI (HOP-62 NSCLC): 2960 nM | GI50 (HOP-92 NSCLC): 1180 nM | TGI (HOP-92 NSCLC): 3.17 µM | GI50 (HS 578T breast): 1850 nM | TGI (HS 578T breast): 8.14 µM | GI50 (HT29 colon): 1870 nM | TGI (HT29 colon): 3.4 µM | GI50 (IGROV1 ovarian): 1540 nM | TGI (IGROV1 ovarian): 3.22 µM | GI50 (K-562 leukemia): 1580 nM | TGI (K-562 leukemia): > 100 µM | GI50 (KM12 colon): 1620 nM | TGI (KM12 colon): 3.16 µM | GI50 (M14 melanoma): 1710 nM | TGI (M14 melanoma): 3.48 µM | GI50 (MALME-3M melanoma): 750 nM | TGI (MALME-3M melanoma): 2810 nM | GI50 (MCF7 breast): 1460 nM | TGI (MCF7 breast): 5.7 µM | GI50 (MDA-MB-231 breast): 1600 nM | TGI (MDA-MB-231 breast): 5.3 µM | GI50 (MDA-MB-435): 1540 nM | TGI (MDA-MB-435): 3.43 µM | GI50 (MOLT-4 leukemia): 2440 nM | TGI (MOLT-4 leukemia): 14.9 µM | GI50 (NCI-H23 lung): 1640 nM | TGI (NCI-H23 lung): 4.74 µM | GI50 (NCI-H460 lung): 1520 nM | TGI (NCI-H460 lung): 3.24 µM | GI50 (NCI-H522 lung): 1430 nM | TGI (NCI-H522 lung): 2990 nM | GI50 (NCI/ADR-RES ovarian): 2640 nM | TGI (NCI/ADR-RES ovarian): > 100 µM | GI50 (OVCAR-3 ovarian): 1280 nM | TGI (OVCAR-3 ovarian): 4.33 µM | GI50 (OVCAR-4 ovarian): 1700 nM | TGI (OVCAR-4 ovarian): 15.9 µM | GI50 (OVCAR-5 ovarian): 2150 nM | TGI (OVCAR-5 ovarian): 4.79 µM | GI50 (OVCAR-8 ovarian): 1590 nM | TGI (OVCAR-8 ovarian): 3.44 µM | GI50 (PC-3 prostate): 1220 nM | TGI (PC-3 prostate): 3.71 µM | GI50 (RPMI-8226 leukemia): 1720 nM | TGI (RPMI-8226 leukemia): 7.15 µM | GI50 (RXF 393 renal): 1500 nM | TGI (RXF 393 renal): 3.1 µM | GI50 (SF-268 CNS): 1400 nM | TGI (SF-268 CNS): 2990 nM | GI50 (SF-295 CNS): 1900 nM | TGI (SF-295 CNS): 4.32 µM | GI50 (SF-539 CNS): 1700 nM | TGI (SF-539 CNS): 3.47 µM | GI50 (SK-MEL-2 melanoma): 1560 nM | TGI (SK-MEL-2 melanoma): 3.3 µM | GI50 (SK-MEL-28 melanoma): 1840 nM | TGI (SK-MEL-28 melanoma): 3.9 µM | GI50 (SK-MEL-5 melanoma): 1510 nM | TGI (SK-MEL-5 melanoma): 2840 nM | GI50 (SK-OV-3 ovarian): 1680 nM | TGI (SK-OV-3 ovarian): 3.23 µM | GI50 (SN12C renal): 1660 nM | TGI (SN12C renal): 3.82 µM | GI50 (SNB-19 CNS): 1830 nM | TGI (SNB-19 CNS): 3.7 µM | GI50 (SNB-75 CNS): 1190 nM | TGI (SNB-75 CNS): 2760 nM | GI50 (SR leukemia): 2570 nM | TGI (SR leukemia): > 100 µM | GI50 (SW-620 colon): 1600 nM | TGI (SW-620 colon): 3.03 µM | GI50 (T-47D breast): 1030 nM | TGI (T-47D breast): 9.47 µM | GI50 (TK-10 renal): 1800 nM | TGI (TK-10 renal): 3.32 µM | GI50 (U251 CNS): 1460 nM | TGI (U251 CNS): 2810 nM | GI50 (UACC-257 melanoma): 1570 nM | TGI (UACC-257 melanoma): 2950 nM | GI50 (UACC-62 melanoma): 1590 nM | TGI (UACC-62 melanoma): 3.85 µM | GI50 (UO-31 renal): 1170 nM | TGI (UO-31 renal): 2900 nM
